Earlier results, collected in patent publication US20060211662A1, “Combination therapy for topical application in the treatment of age-related macular degeneration and ocular hypertension” (priority 2005, published 2006).

Experiments:
[1] = for androgenic (virilizing) activity relative to standards: relative to standards (typically testosterone)
[2] = for anabolic activity relative to standards: relative to standards (typically testosterone)

| Structure (SMILES) | androgenic (virilizing) activity relative to standards [1] | anabolic activity relative to standards [2] | androgenic activity as percent of methyltestosterone ([1]; relative to methyltestosterone) [%] | anabolic activity as percent of methyltestosterone ([2]; relative to methyltestosterone) [%] |
| --- | --- | --- | --- | --- |
| C[C@]12Cc3c[nH]nc3C[C@@H]1CC[C@@H]1[C@@H]2CC[C@@]2(C)[C@H]1CC[C@]2(C)O [stanozolol] | decreased | increased |  |  |
| C[C@]12C/C(=C/O)C(=O)C[C@@H]1CC[C@@H]1[C@@H]2CC[C@@]2(C)[C@H]1CC[C@]2(C)O [oxymetholone] | unchanged | enhanced |  |  |
| CCC(=O)O[C@H]1CC[C@H]2[C@@H]3CCC4=CC(=O)CC[C@@H]4[C@H]3CC[C@]12C [19-nortestosterone propionate] | decreased | unchanged |  |  |
| C[C@]12COC(=O)C[C@@H]1CC[C@@H]1[C@@H]2CC[C@@]2(C)[C@H]1CC[C@]2(C)O [oxandrolone, 17 alpha-methyl-17β-hydroxy-2-oxa-5 alpha-androstan-3-one] | decreased | increased | 24 | 322 |
| C[C@]1(O)CC[C@H]2[C@@H]3CCC4=CC(=O)CC[C@]4(C)[C@@]3(F)[C@@H](O)C[C@@]21C [fluoxymesterone] | augmented | even larger increase |  |  |
| C[C@]12CCC(=O)C[C@@H]1CC[C@@H]1[C@@H]2CC[C@]2(C)[C@@H](O)CC[C@@H]12 [dihydrotestosterone] | unchanged | enhanced |  |  |
